Molecules are shown by their SMILES.

The target of this experiment is T1, Mucosa-associated lymphoid tissue lymphoma translocation protein 1 (Homo sapiens, UniProt Q9UDY8).
T1 sequence (Q9UDY8 whole entry): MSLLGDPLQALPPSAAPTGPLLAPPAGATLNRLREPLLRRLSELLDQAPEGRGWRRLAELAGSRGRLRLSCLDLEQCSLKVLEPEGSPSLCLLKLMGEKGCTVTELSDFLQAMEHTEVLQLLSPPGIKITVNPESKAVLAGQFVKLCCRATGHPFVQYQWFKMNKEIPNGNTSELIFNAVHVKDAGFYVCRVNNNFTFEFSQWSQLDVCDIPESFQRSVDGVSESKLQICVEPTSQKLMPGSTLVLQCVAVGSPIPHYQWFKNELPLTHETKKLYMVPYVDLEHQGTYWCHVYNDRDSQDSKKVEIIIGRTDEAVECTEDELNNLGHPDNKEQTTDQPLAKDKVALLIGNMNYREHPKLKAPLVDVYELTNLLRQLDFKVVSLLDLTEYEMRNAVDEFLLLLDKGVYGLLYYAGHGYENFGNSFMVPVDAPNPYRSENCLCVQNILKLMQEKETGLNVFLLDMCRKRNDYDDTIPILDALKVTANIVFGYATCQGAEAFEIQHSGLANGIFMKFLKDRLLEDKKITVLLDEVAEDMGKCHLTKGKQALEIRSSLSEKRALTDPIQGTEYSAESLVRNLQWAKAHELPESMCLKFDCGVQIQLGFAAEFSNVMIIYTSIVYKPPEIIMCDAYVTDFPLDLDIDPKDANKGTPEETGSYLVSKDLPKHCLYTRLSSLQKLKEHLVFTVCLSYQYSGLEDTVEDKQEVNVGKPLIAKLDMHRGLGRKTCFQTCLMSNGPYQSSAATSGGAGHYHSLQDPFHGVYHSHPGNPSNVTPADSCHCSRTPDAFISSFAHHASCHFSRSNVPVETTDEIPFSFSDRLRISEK
Description: MALT1 Enzyme Activity Assay. On the procedure: The compound and the enzyme were pre-incubated at room temperature for 50 min. The substrate was then added and the reaction was carried out for 4 h.
One may read the IC50 as the concentration at which inhibition is half-maximal. Regarding `CS(C)(=O)=Nc1ncc(NC(=O)c2cnn(-c3ccc4c5c(cccc35)C(=O)N4)c2C(F)(F)F)cc1C(F)(F)F` [US20250059196, Example 30], it took 0.141 µM to reach half-maximal inhibition (IC50).

`O=C(Nc1cnc(-n2cccn2)c(C(F)(F)F)c1)c1cnn(-c2ccc3c4c(cccc24)C(=O)N3)c1C(F)(F)F` [US20250059196, Example 31] registered a half-maximal inhibitory concentration (IC50) of 0.04 µM.

In the case of `N#Cc1ccnn1-c1ncc(NC(=O)c2cnn(-c3ccc4c5c(cccc35)C(=O)N4)c2C(F)(F)F)cc1C(F)(F)F` [US20250059196, Example 32], 0.123 µM corresponded to half-maximal inhibition (IC50).

In the case of `O=C(Nc1cnc(-c2nccs2)c(C(F)(F)F)c1)c1cnn(-c2ccc3c4c(cccc24)C(=O)N3)c1C(F)(F)F` [US20250059196, Example 33], the IC50 is 0.046 µM.

In turn, `O=C(Nc1cnc(-c2ncco2)c(C(F)(F)F)c1)c1cnn(-c2ccc3c4c(cccc24)C(=O)N3)c1C(F)(F)F` [US20250059196, Example 34] registered an IC50 of 0.032 µM.

Compound `Cc1nc(-c2ncc(NC(=O)c3cnn(-c4ccc5c6c(cccc46)C(=O)N5)c3C(F)(F)F)cc2C(F)(F)F)oc1C` [US20250059196, Example 35] registered an IC50 of 0.059 µM.

In turn, `O=C(Nc1cnc(-n2ccnn2)c(C(F)(F)F)c1)c1cnn(-c2ccc3c4c(cccc24)C(=O)N3)c1C(F)(F)F` [US20250059196, Example 36] returned an IC50 of 0.053 µM.

In turn, `O=C(Nc1cnc(N2CCC2)c(Cl)c1)c1cnn(-c2ccc3c4c(cccc24)C(=O)N3)c1C(F)(F)F` [US20250059196, Example 48] displayed a half-inhibitory concentration (IC50) of 0.14 µM.

For `O=C(Nc1ccc(-n2cccn2)c(C(F)(F)F)c1)c1cnn(-c2ccc3c4c(cccc24)C(=O)N3)c1C(F)(F)F` [US20250059196, Example 51], the IC50 is 0.047 µM.

`O=C(Nc1ccc(C(=O)N2CCCC2)c(C(F)(F)F)c1)c1cnn(-c2ccc3c4c(cccc24)C(=O)N3)c1C(F)(F)F` [US20250059196, Example 52] showed an IC50 of 0.104 µM.

In turn, `O=C(Nc1cnc(-n2cccn2)c(C(F)(F)F)c1)c1cnn(-c2cnc3c4c(cccc24)C(=O)N3)c1C(F)(F)F` [US20250059196, Example 69] registered an IC50 of 0.081 µM.

For `O=C(Nc1ccc(-n2nccn2)c(C(F)(F)F)c1)c1cnn(-c2cnc3c4c(cccc24)C(=O)N3)c1C(F)(F)F` [US20250059196, Example 73], the IC50 was 0.191 µM.

In turn, `O=C(Nc1ccc(-n2cccn2)c(C(F)(F)F)c1)c1cnn(-c2cnc3c4c(cccc24)C(=O)N3)c1C(F)(F)F` [US20250059196, Example 74] registered a 50% inhibitory concentration (IC50) of 0.196 µM.

`O=C(Nc1ccc(-n2nccn2)c(Cl)c1)c1cnn(-c2cnc3c4c(cccc24)C(=O)N3)c1C(F)(F)F` [US20250059196, Example 75] showed a half-maximal inhibitory concentration (IC50) of 0.024 µM.

`O=C(Nc1cnc(-n2nccn2)c(C(F)(F)F)c1)c1cnn(-c2cnc3c4c(cccc24)C(=O)N3)c1C1CC1` [US20250059196, Example 78] gave an IC50 of 0.035 µM.

The compound `O=C(Nc1cnc(-n2nccn2)c(C(F)(F)F)c1)c1cnn(-c2ncc3c4c(cccc24)C(=O)N3)c1C(F)(F)F` [US20250059196, Example 87] returned a half-inhibitory concentration (IC50) of 0.084 µM.

Turning to `CCc1cc(-n2ncc(C(=O)Nc3ccnc(C(F)(F)F)c3)c2C(F)(F)F)c2cccc3c2c1NC3=O` [US20250059196, Example 89], the IC50 was 0.106 µM.

(Values after BindingDB's records for patent US20250059196 (Shanghai Hansoh Biomedical, 2025).)
